Assay: xn = mol fraction of the nth substance listed
Conditions: 100 kPa

CCC(=O)[O-].C[n+]1ccn(CCO)c1 + O
viscosity [mPa·s]
Conditions | 288.15 K | 293.15 K | 298.15 K | 303.15 K | 308.15 K | 313.15 K | 318.15 K | 323.15 K | 328.15 K | 333.15 K
x1 = 0.7595 | 173 | 126 | – | 70.4 | 57.5 | 45.1 | 36.6 | 30.3 | 25.1 | 21.1
x1 = 0.8082 | 194 | 145 | 108.2 | 80.5 | 65.2 | 48.5 | 38.9 | – | – | 22.2
x1 = 0.842 | 217 | 157 | – | 88.5 | 68.6 | 50.9 | – | 33.2 | 28.2 | 22.7
x1 = 0.8991 | 243 | 178 | 132 | 101.3 | – | 54 | 42.9 | – | 30.2 | –
x1 = 0.9102 | 248 | 184 | 136 | 103.7 | 78.5 | 54.9 | 43.6 | 35.1 | – | 23.9

CC(=O)[O-].Cn1cc[n+](CCO)c1 + O
viscosity [mPa·s]
Conditions | 288.15 K | 293.15 K | 298.15 K | 303.15 K | 308.15 K | 313.15 K | 318.15 K | 323.15 K | 328.15 K | 333.15 K
x1 = 0.8317 | 73.1 | 54.2 | – | – | – | 20.52 | 16.8 | 13.96 | 11.73 | 9.95
x1 = 0.8632 | 95.7 | 71.8 | 53.8 | 41.9 | 32.2 | – | 20.74 | 17.07 | 14.25 | 12.06
x1 = 0.8712 | 102.6 | 74.7 | – | – | 33.3 | – | 21.56 | 17.7 | – | 12.4
x1 = 0.8818 | 112.8 | 83.4 | 62 | 47.1 | – | – | 23.58 | – | 16.02 | –
x1 = 0.9003 | 127.4 | – | 69.5 | 52.7 | 40.8 | 32.2 | 25.9 | 21.33 | 17.64 | –
